Data as given in patent US9045466B2, “Amidine compound or salt thereof” (priority 2011, dated 2015).
In brackets after ≈: the same amount, converted by molar mass. Where a name gives a salt, the structure may show the parent alone. Read-outs that look alike come from different tables or passages of the source.

Columns and labels:
Assay in all cases: Fungal susceptibility test, broth microdilution method (MIC)
Assay type in all cases: cell-based
[1] = system: Aspergillus fumigatus TIMM 0063; conditions: TIMM0063, 48 h
Procedure: (§1) The fungal susceptibility tests on test substances were conducted by the broth microdilution method equivalent to Clinical and Laboratory Standards Institute method. The medium used in the susceptibility tests was RPMI1640 adjusted to pH 7.0 with 0.165 mol/L morpholinepropanesulfonic acid (MOPS) and 50% sodium hydroxide (RPMI/MOPS). Each test substance was dissolved in DMSO and serially diluted in 2-fold increments with DMSO on a 96-well microplate. Then, the dilutions were dispensed by 1 μL to a 96-well microplate. Candida albicans TIMM 1623 cultured overnight at 35° C. in Sabouraud's agar medium was suspended in sterile saline. The number of cells was counted under a biological microscope, and the fungal suspension was diluted with RPMI/MOPS to prepare the inoculum solution (approximately 1×10^3 cells/mL). Alternatively, Candida albicans TIMM 1623 stored at −80° C. was diluted with RPMI/MOPS to prepare the inoculum solution (approximately 1×10^3 CFU/mL). Aspergillus fumigatus TIMM 0063 stored at 5° C. was diluted with RPMI/MOPS to prepare the inoculum solution (approximately 1×10^4 CFU/mL). Trichophyton rubrum NBRC 5467 stored at 5° C. or −80° C. was diluted with RPMI/MOPS to prepare the inoculum solution (approximately 2×10^3 CFU/mL). The 199 μL of inoculum solution was dispensed to each well to prepare the microplate containing the designated concentrations of test substance, medium and fungal cells. Candida albicans and Aspergillus fumigatus were cultured at 35° C. for 2 days. Trichophyton rubrum was cultured at 35° C. for 4 days. After the completion of culture, MIC was determined by visual observation. The MICs of Candida albicans and Aspergillus fumigatus were set to the lowest concentration at which approximately 50% growth inhibition was seen, when compared with a growth control without the addition of the test substance. The MIC of Trichophyton rubrum was set to the lowest concentration at which approximately 80% growth inhibition was seen, when compared with a growth control without the addition of the test substance.

[2] = system: Candida albicans TIMM 1623; conditions: TIMM1623, 48 h
Procedure: as §1

[3] = system: Trichophyton rubrum NBRC 5467; conditions: NBRC5467, 96 h
Procedure: as §1

[4] = RPMI/MOPS pH 7.0, 35° C. for 2 days, visual, lowest concentration with approximately 50% growth inhibition, read-out: MIC (μg/mL) A. fumigatus TIMM 0063
[5] = RPMI/MOPS pH 7.0, 35° C. for 2 days, visual, lowest concentration with approximately 50% growth inhibition, read-out: MIC (μg/mL) C. albicans TIMM1623
[6] = RPMI/MOPS pH 7.0, 35° C. for 4 days, visual, lowest concentration with approximately 80% growth inhibition, read-out: MIC (μg/mL) T. rubrum NBRC5467

| Compound | MIC [1, 4] [µg/mL] | MIC [2, 5] [µg/mL] | MIC [3, 6] [µg/mL] | MIC ([1]; pH 7, read-out: MIC (μg/mL) A. fumigatus TIMM 0063) [µg/mL] | MIC ([2]; pH 7, read-out: MIC (μg/mL) C. albicans TIMM1623) [µg/mL] | MIC ([3]; pH 7, read-out: MIC (μg/mL) T. rubrum NBRC5467) [µg/mL] |
| --- | --- | --- | --- | --- | --- | --- |
| CCN(C)/C=N/c1cc(C)c(Cc2nc(-c3ccc(C)cc3)ns2)cc1C [Example 16, N′-(2,5-Dimethyl-4-{[3-(4-methylphenyl)-1,2,4-thiadiazol-5-yl]methyl}phenyl)-N-ethyl-N-methylimidoformamide] | 0.0313 (≈ 0.0827 µM) | 0.0313 (≈ 0.0827 µM) | 0.002 (≈ 0.00528 µM) |  |  |  |
| CCN(C)/C=N/c1cc(C)c(Cc2nc(-c3cc(F)c(C)cc3F)cs2)cc1C [Example 58, N′-(4-{[4-(2,5-Difluoro-4-methylphenyl)-1,3-thiazol-2-yl]methyl}-2,5-dimethylphenyl)-N-ethyl-N-methylimidoformamide hydrobromide] | 0.0625 | 0.0156 | 0.001 |  |  |  |
| CCN(C)/C=N/c1cc(C)c(Cc2nc(-c3ccc(C)cc3F)cs2)cc1C [Example 59, N-Ethyl-N′-(4-{[4-(2-fluoro-4-methylphenyl)-1,3-thiazol-2-yl]methyl}-2,5-dimethylphenyl)-N-methylimidoformamide dihydrochloride] |  |  |  | 0.0313 | 0.0156 | 0.0005 |
